Assay results: patent US20220000875A1, “TOPICAL COMPOSITIONS COMPRISING PENTOXIFYLLINE AND METHODS OF TREATMENT USING THE SAME” (priority 2018, published 2022)

What was measured:
[1] = Adverse events in the randomized, open-label clinical study; settings: adverse event
Protocol: (§1) A randomized, open-label, proof-of-concept clinical study was conducted under an FDA Investigational New Drug Application (IND). […] The CLC was administered orally as a pill and dosed as determined by the subject's physician. No less than every 48 hours, subjects' ulcers were photographed and examined using digital image processing to determine ulcer area, over a period of 14 days, which include daily collection of adverse events, ulcer number, and pain scores.
(§2) Inclusion criteria required the recent (<2 days) appearance of a new oral ulcer. Patients on immunosuppressant therapies were excluded from the study.
All adverse events were reviewed in real time by the treating physician investigator.

[2] = test system: oral ulcers of BD patients; assay: Randomized, open-label, proof-of-concept clinical study of topical PTX muco-adherent gel: oral ulcer healing, ulcer number, pain; format: in vivo, human
Protocol: as §1, §2
Patients were contacted daily for 14 consecutive days and were examined in-person no less than every 48 hours except for weekends. On the first day of entry into the study, the largest ulcer was identified and photographed as the “index ulcer”; its location was recorded and it was subsequently photographed at every in-person visit. Photographs were made with a paper ruler showing millimeter graduations lain in the same plane as the ulcer itself. Graphical processing software was used to compute the ulcer area in square millimeters; this software was calibrated from the paper ruler image and required drawing a line around the image of the ulcer margin.
Then, the proportion of patients with undetectable index ulcer (defined as those with an ulcer area of less than 1 mm^2) at day 4 was compared. Lastly, the trend in mean ulcer area over 14 days was compared as well as the results' sensitivity to outliers.
The total number of oral ulcers were also counted at each in-person visit, and the daily average number of oral ulcers were calculated during the treatment period.
The average day zero pain score for each treatment group was normalized to 100%. Then for each treatment group averages were plotted for succeeding days as a percentage of the first day's pain score average.

[3] = cited from earlier work
[4] = interpreted as dermal manifestations of BD
[5] = day 2 of treatment, PTX+CLC n = 18, CLC n = 21

| SMILES | Dysgeusia, % of patients [1] [%] | Dysgeusia, number of patients [1] | Nausea, % of patients [1] [%] | Nausea, number of patients [1] | Vomiting, number of patients [1] | limited dermal rashes, % of patients [1, 4] [%] | limited dermal rashes, number of patients [1, 4] | Day 2 Growth/Shrinkage - Patients with Index Ulcer Growth, % [2, 5] [%] | Day 2 Growth/Shrinkage - Patients with Index Ulcer Growth, Number [2, 5] | Day 2 Growth/Shrinkage - Patients with Index Ulcer Shrinkage, % [2, 5] [%] | Day 2 Growth/Shrinkage - Patients with Index Ulcer Shrinkage, Number [2, 5] | Day 4 Clearance - Patients with Remaining Ulcers, % ([2]; day 4, PTX+CLC n = 18, CLC n = 21) [%] | Day 4 Clearance - Patients with Undetectable Ulcers, % ([2]; day 4, undetectable = ulcer area of less than 1 mm^2, PTX+CLC n = 18, CLC n = 21) [%] | mean index ulcer area by treatment group (trend) ([2]; over 14 days, FIG. 1) | daily average number of oral ulcers during the treatment phase ([2]; two weeks of treatment) | plasma levels of metabolite relative to PTX [3] |
| --- | --- | --- | --- | --- | --- | --- | --- | --- | --- | --- | --- | --- | --- | --- | --- | --- |
| COc1cc2c(c(OC)c1OC)-c1ccc(OC)c(=O)cc1[C@@H](NC(C)=O)CC2 [CLC, colchicine] | 0 | 0 | 10 | 2 | none | 29 | 6 | 80 | 16 | 19 | 4 | 71 | 29 | first growing then slowly decreasing | 1.89+/−1.36 |  |
| Cn1cnc2c1c(=O)n(CCCC(=O)O)c(=O)n2C [Metabolite V, 1-[3-carboxypropyl]-3,7-dimethylxanthine] |  |  |  |  |  |  |  |  |  |  |  |  |  |  |  | eight |
| CC(O)CCCCn1c(=O)c2c(ncn2C)n(C)c1=O (centres unmarked) [Metabolite 1, 1-[5-hydroxyhexyl]-3,7-dimethylxanthine] |  |  |  |  |  |  |  |  |  |  |  |  |  |  |  | five |
